Measurements reported in patent US20230234938A1 (RHIZEN PHARMACEUTICALS AG, priority 2020, published 2023).

Tests used:
[1] = molecular target: PARP1 (Homo sapiens, UniProt P09874); test: PARP enzyme assay (PARP1, chemiluminescent histone ribosylation); conditions: for inhibition at 0.01 µM: read-out: % inhibition 10 nM; for inhibition at 0.1 µM: read-out: % inhibition 100 nM; for % inhibition 10 nM / % inhibition 100 nM: PARP enzyme assay; for % inhibition 10 nM: 10 nM compound, 0.01 µM; for % inhibition 100 nM: 100 nM compound, 0.1 µM
Procedure: 1) Coat 25 µL of histone solution onto a 384-well plate as described below: • Dilute 5x histone mixture 1:5 with PBS. • Add 25 µL of diluted histone solution to each well and incubate at 4° C. overnight. • Wash the plate three times using 100 µL PBST buffer (1x PBS containing 0.05% Tween20) per well. • Tap plate onto clean paper towel to remove liquid. • Block the wells by adding 100 µL of Blocking buffer 3 to every well. Incubate at room temperature for 1 h 15 minutes. • Wash plate three times with 100 µL PBST buffer as described above. • Tap plate onto clean paper towel to remove liquid.
1) Preparation of 1X PARP Buffer: • Prepare 1x PARP buffer by adding 1 part of 10x PARP buffer to 9 parts distilled water (v/v). To prepare 500 µL of 1X PARP buffer, add 50 µL 10X PARP Assay buffer to 450 µL of H2O and mix well.
2) Preparation of the Ribosylation master mixture: • N wells x (1.25 µL 10x PARP buffer + 1.25 µL 10X PARP Assay mixture + 2.5 µL Activated DNA + 7.5 µL distilled water). Add 12.5 µL to every well.
3) Preparation of the inhibitor solution: • 10 mM stock solution of the inhibitor was prepared in DMSO. From 10 mM stock solution, 250X concentrations of the inhibitor were made in DMSO. • 250X DMSO concentrations of the inhibitor were further diluted to 10X concentrations in 1X kinase buffer. • 2.5 µL (10X concentrations) of kinase buffer containing inhibitor was added to each well. • For the “Positive Control” and “Blank”, add 2.5 µL of kinase buffer containing DMSO (4%) was added. • The final DMSO concentration in the well was 0.4 %.
4) Preparation of the enzyme solution: • Thaw PARP1 enzyme on ice. Upon first thaw, briefly spin tube containing enzyme to recover full content of the tube. Calculate the amount of PARP1 required for the assay and dilute enzyme to 2.0 ng/µL with 1x PARP buffer. • Initiate reaction by adding 10 µL of diluted PARP1 enzyme to the wells designated “Positive Control” and “Test Inhibitor”. • To the wells designated as “Blank”, add 10 µL of 1X PARP buffer. • Centrifuge the plate at 1000 rpm for 30 seconds and incubate at room temperature for 60 min. • Discard the reaction mixture after 1 hour, and wash plate three times with 100 µL PBST buffer and tap plate onto clean paper towel as described above.
1) Preparation of Streptavidin-HRP: • Dilute Streptavidin-HRP 1:50 in Blocking buffer. • Add 25 µL of diluted Streptavidin-HRP to each well. Incubate for 30 min. at room temperature. • Wash three times with 100 µL PBST buffer and tap plate onto clean paper towel as above as described above.
2) Preparation of ECL substrate: • Just before use, mix on ice equal amounts of ELISA ECL Substrate A and ELISA ECL Substrate B and add 50 µL per well. • Immediately read the plate in microtiter-plate in Chemiluminescence setting. The “Blank” value is subtracted from all other values.

[2] = molecular target: PARP2 (Homo sapiens, UniProt Q9UGN5); test: PARP enzyme assay (PARP2); type: biochemical
From the text: Step 2: Ribosylation Reaction

Chain of PARP1 (P09874 whole entry, species assumed): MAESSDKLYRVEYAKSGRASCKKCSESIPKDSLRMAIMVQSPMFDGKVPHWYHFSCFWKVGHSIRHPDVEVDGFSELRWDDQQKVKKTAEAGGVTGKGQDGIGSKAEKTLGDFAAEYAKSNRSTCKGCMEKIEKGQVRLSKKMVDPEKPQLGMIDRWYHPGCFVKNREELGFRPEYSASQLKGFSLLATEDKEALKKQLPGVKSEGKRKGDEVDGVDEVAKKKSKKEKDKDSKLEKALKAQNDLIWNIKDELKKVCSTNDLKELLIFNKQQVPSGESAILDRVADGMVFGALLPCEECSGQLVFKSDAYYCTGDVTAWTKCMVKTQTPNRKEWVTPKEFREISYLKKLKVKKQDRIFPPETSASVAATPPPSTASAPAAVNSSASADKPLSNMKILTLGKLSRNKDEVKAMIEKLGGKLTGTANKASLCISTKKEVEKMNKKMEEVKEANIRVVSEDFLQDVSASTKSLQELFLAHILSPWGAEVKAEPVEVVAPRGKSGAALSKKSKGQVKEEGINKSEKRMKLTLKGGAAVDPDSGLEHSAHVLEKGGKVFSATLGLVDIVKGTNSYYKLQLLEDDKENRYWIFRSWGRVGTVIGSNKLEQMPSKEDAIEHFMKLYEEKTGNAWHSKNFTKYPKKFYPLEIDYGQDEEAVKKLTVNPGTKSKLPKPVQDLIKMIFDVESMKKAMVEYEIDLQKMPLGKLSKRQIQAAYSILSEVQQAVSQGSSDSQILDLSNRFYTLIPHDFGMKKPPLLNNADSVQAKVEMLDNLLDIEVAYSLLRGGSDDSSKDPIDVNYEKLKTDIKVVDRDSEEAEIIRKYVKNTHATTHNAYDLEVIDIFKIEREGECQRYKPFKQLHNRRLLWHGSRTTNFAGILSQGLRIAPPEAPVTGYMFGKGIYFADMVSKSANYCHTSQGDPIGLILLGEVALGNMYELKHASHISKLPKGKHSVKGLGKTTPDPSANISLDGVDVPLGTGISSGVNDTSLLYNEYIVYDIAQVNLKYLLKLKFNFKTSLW
Chain of PARP2 (Q9UGN5 whole entry, species assumed): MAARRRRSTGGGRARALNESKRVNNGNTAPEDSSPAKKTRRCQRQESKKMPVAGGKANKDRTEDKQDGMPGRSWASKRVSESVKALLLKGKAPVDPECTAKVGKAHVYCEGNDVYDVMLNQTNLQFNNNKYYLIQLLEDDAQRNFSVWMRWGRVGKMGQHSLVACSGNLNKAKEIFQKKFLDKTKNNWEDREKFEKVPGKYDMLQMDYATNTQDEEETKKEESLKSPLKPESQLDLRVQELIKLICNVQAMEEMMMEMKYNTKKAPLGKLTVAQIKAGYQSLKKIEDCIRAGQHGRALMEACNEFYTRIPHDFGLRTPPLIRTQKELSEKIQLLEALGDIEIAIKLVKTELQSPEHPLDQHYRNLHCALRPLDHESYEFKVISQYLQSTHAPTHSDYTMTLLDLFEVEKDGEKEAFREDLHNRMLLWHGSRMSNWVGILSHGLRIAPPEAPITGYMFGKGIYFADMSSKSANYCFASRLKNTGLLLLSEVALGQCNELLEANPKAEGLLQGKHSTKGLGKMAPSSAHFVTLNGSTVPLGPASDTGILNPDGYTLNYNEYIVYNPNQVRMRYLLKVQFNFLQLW

SMILES	inhibition at 0.01 µM [1]	inhibition at 0.1 µM [1]	melting point	IC50 [2]	IC50 [1]	% inhibition 10 nM [1]	% inhibition 100 nM [1]
CC1(O)C(=O)N(c2cncc(Cc3n[nH]c(=O)c4ccccc34)c2)c2ccc(F)cc21 (centres unmarked) [Example 13, 4-((5-(5-Fluoro-3-hydroxy-3-methyl-2-oxoindolin-1-yl)pyridin-3-yl)methyl)phthalazin-1(2H)-one]	75 to 100%	75 to 100%	116 to 120 °C	< 10 nM	< 10 nM	–	–
O=C1N(c2cncc(Cc3n[nH]c(=O)c4ccccc34)c2)c2ccccc2C1(O)C(F)(F)F (single isomer, unassigned; (-)) [Example 27, (-)-4-((5-(3-Hydroxy-2-oxo-3-(trifluoromethyl)indolin-1-yl)pyridin-3-yl)methyl)phthalazin-1(2H)-one]	–	–	210 to 214 °C	–	–	C (C represents >25% to ≤50%)	C (C represents >25% to ≤50%)
CCC1(O)C(=O)N(c2cncc(Cc3n[nH]c(=O)c4ccccc34)c2)c2ccccc21 (centres unmarked) [Example 5, 4-((5-(3-Ethyl-3-hydroxy-2-oxoindolin-1-yl)pyridin-3-yl)methyl)phthalazin-1(2H)-one]	75 to 100%	75 to 100%	117 to 120 °C	–	–	–	–
CC1(O)C(=O)N(c2cc(Cc3n[nH]c(=O)c4ccccc34)ccc2F)c2ccccc21 (centres unmarked) [Example 4, 4-(4-Fluoro-3-(3-hydroxy-3-methyl-2-oxoindolin-1-yl)benzyl)phthalazin-1(2H)-one]	75 to 100%	75 to 100%	131 to 134 °C	–	–	–	–
CC1(O)C(=O)N(c2cncc(Cc3n[nH]c(=O)c4cc(F)ccc34)c2)c2ccccc21 (centres unmarked) [Example 6, 7-Fluoro-4-((5-(3-hydroxy-3-methyl-2-oxoindolin-1-yl)pyridin-3-yl)methyl)phthalazin-1(2H)-one]	–	–	133 to 136 °C	< 10 nM	–	–	–
CC1(O)C(=O)N(c2cncc(Cc3n[nH]c(=O)c4cc(F)ccc34)c2)c2ccc(F)cc21 (centres unmarked) [Example 10, 7-Fluoro-4-((5-(5-fluoro-3-hydroxy-3-methyl-2-oxoindolin-1-yl)pyridin-3-yl)methyl)phthalazin-1(2H)-one]	75 to 100%	75 to 100%	157 to 160 °C	–	< 10 nM	–	–
CC1(O)C(=O)N(c2cncc(Cc3n[nH]c(=O)c4ccc(F)cc34)c2)c2ccccc21 (centres unmarked) [Example 9, 6-Fluoro-4-((5-(3-hydroxy-3-methyl-2-oxoindolin-1-yl)pyridin-3-yl)methyl)phthalazin-1(2H)-one]	75 to 100%	75 to 100%	132 to 135 °C	–	–	–	–
CC1(O)C(=O)N(c2cncc(Cc3n[nH]c(=O)c4ccccc34)c2)c2cc(F)ccc21 (centres unmarked) [Example 16]	75 to 100%	75 to 100%	125 to 128 °C	–	–	–	–
O=C1N(c2cncc(Cc3n[nH]c(=O)c4ccccc34)c2)c2ccccc2C1(O)C(F)(F)F (single isomer, unassigned; (+)) [Example 26, (+)-4-((5-(3-Hydroxy-2-oxo-3-(trifluoromethyl)indolin-1-yl)pyridin-3-yl)methyl)phthalazin-1(2H)-one]	–	–	170 to 174 °C	–	–	A (A represents >75% to 100%)	A (A represents >75% to 100%)

Further lines, with some results ahead:

inhibition at 0.01 µM [1]	inhibition at 0.1 µM [1]	melting point	SMILES	IC50 [2]	IC50 [1]	% inhibition 10 nM [1]	% inhibition 100 nM [1]
75 to 100%	75 to 100%	232 to 235 °C	O=C1Cc2ccccc2N1c1cc(Cc2n[nH]c(=O)c3ccccc23)ccc1F [Example 33, 4-(4-Fluoro-3-(2-oxoindolin-1-yl)benzyl)phthalazin-1(2H)-one]	–	–	–	–
75 to 100%	75 to 100%	221 to 224 °C	CC1(C)C(=O)N(c2cncc(Cc3n[nH]c(=O)c4ccccc34)c2)c2ccccc21 [Example 35, 4-((5-(3,3-Dimethyl-2-oxoindolin-1-yl)pyridin-3-yl)methyl)phthalazin-1(2H)-one]	–	–	–	–
75 to 100%	75 to 100%	219 to 221 °C	CC1(O)C(=O)N(c2cncc(Cc3n[nH]c(=O)c4cc(F)ccc34)c2)c2cc(F)ccc21 (centres unmarked) [Example 17, 7-Fluoro-4-((5-(6-fluoro-3-hydroxy-3-methyl-2-oxoindolin-1-yl)pyridin-3-yl)methyl)phthalazin-1(2H)-one]	–	–	–	–
25 to 50%	75 to 100%	242 to 245 °C	CC1(C)C(=O)N(c2cncc(Cc3n[nH]c(=O)c4ccccc34)c2)c2cccnc21 [Example 36, 4-((5-(3,3-Dimethyl-2-oxo-2,3-dihydro-1H-pyrrolo[3,2-b]pyridin-1-yl)pyridin-3-yl)methyl)phthalazin-1(2H)-one]	–	–	–	–
75 to 100%	75 to 100%	237 to 239 °C	CC(=O)OC1(C)C(=O)N(c2cncc(Cc3n[nH]c(=O)c4ccccc34)c2)c2ccccc21 (centres unmarked) [Example 32, 3-Methyl-2-oxo-1-(5-((4-oxo-3,4-dihydrophthalazin-1-yl)methyl)pyridin-3-yl)indolin-3-yl acetate]	–	–	–	–
25 to 50%	75 to 100%	133 to 136 °C	CC1(O)C(=O)N(c2cccc(Cc3n[nH]c(=O)c4ccccc34)c2)c2cnccc21 (centres unmarked) [Example 31, 4-(3-(3-Hydroxy-3-methyl-2-oxo-2,3-dihydro-1H-pyrrolo[2,3-c]pyridin-1-yl)benzyl)phthalazin-1(2H)-one]	–	–	–	–
75 to 100%	75 to 100%	129 to 132 °C	CC1(C)C(=O)N(c2cc(Cc3n[nH]c(=O)c4ccccc34)ccc2F)c2ccccc21 [Example 34, 4-(3-(3,3-Dimethyl-2-oxoindolin-1-yl)-4-fluorobenzyl)phthalazine-1(2H)-one]	–	–	–	–
25 to 50%	75 to 100%	207 to 210 °C	COC1(C)C(=O)N(c2cncc(Cc3n[nH]c(=O)c4ccccc34)c2)c2ccccc21 (centres unmarked) [Example 30, 4-((5-(3-methoxy-3-methyl-2-oxoindolin-1-yl)pyridin-3-yl)methyl)phthalazin-1(2H)-one]	–	–	–	–
75 to 100%	75 to 100%	240 to 243 °C	CC1(O)C(=O)N(c2cccc(Cc3n[nH]c(=O)c4ccccc34)c2)c2ccccc21 (centres unmarked) [Example 28, 4-(3-(3-Hydroxy-3-methyl-2-oxoindolin-1-yl)benzyl)phthalazin-1(2H)-one]	–	–	–	–
75 to 100%	75 to 100%	207 to 210 °C	CC1(O)C(=O)N(c2cc(Cc3n[nH]c(=O)c4cc(F)ccc34)ccc2F)c2ccccc21 (centres unmarked) [Example 29, 7-Fluoro-4-(4-fluoro-3-(3-hydroxy-3-methyl-2-oxoindolin-1-yl)benzyl)phthalazin-1(2H)-one]	–	–	–	–
25 to 50%	75 to 100%	114 to 117 °C	CC1(C)C(=O)N(c2cc(Cc3n[nH]c(=O)c4ccccc34)ccc2F)c2cccnc21 [Example 37, 4-(3-(3,3-Dimethyl-2-oxo-2,3-dihydro-1H-pyrrolo[3,2-b]pyridin-1-yl)-4-fluorobenzyl)phthalazin-1(2H)-one]	–	–	–	–
75 to 100%	75 to 100%	219 to 222 °C	O=C1N(c2cncc(Cc3n[nH]c(=O)c4ccccc34)c2)c2ccccc2C12CC2 [Example 38, 1′-(5-((4-Oxo-3,4-dihydrophthalazin-1-yl)methyl)pyridin-3-yl)spiro[cyclopropane-1,3′-indolin]-2′-one]	–	–	–	–
